Source: patent publication US20260217701A1, “SELECTIVE BET INHIBITORS AND USES THEREOF” (Tay Therapeutics Limited, priority 2022, published 2026)
Values joined by “and” are separate entries in the source; they are usually repeats but may differ in a detail not shown here. Equal values may be shown once.

Tested on: collagen-induced arthritis
Test: Collagen-induced arthritis (CIA) model: clinical scores and paw volume; for Animal paw volume percent change (%): reference of the scale not given here; for Average animal paw volume percent change (%): reference of the scale not given here
Assay type: in vivo, Lewis rats
Conditions: for Overall Clinical Score: individual animals 1-8; for Animal paw volume / Animal paw volume percent change (%): individual animals
[1] = Day 15, CIA + Compound A 3 mg/kg
[2] = Day 15, CIA + Compound A 10 mg/kg
[3] = Day 18, L paw, group 5 CIA + Compound A 1 mg/kg
[4] = Day 18, L paw, group 6 CIA + Compound A 3 mg/kg
[5] = Day 18, L paw, group 7 CIA + Compound A 10 mg/kg
[6] = Day 18, R paw, group 5 CIA + Compound A 1 mg/kg
[7] = Day 18, R paw, group 6 CIA + Compound A 3 mg/kg
[8] = Day 18, R paw, group 7 CIA + Compound A 10 mg/kg
[9] = Day 18, CIA + Compound A 1 mg/kg
[10] = Day 18, CIA + Compound A 3 mg/kg
[11] = Day 18, CIA + Compound A 10 mg/kg
[12] = Day 19, L paw, group 5 CIA + Compound A 1 mg/kg
[13] = Day 19, L paw, group 6 CIA + Compound A 3 mg/kg
[14] = Day 19, L paw, group 7 CIA + Compound A 10 mg/kg
[15] = Day 19, R paw, group 5 CIA + Compound A 1 mg/kg
[16] = Day 19, R paw, group 6 CIA + Compound A 3 mg/kg
[17] = Day 19, R paw, group 7 CIA + Compound A 10 mg/kg
[18] = Day 19, CIA + Compound A 1 mg/kg
[19] = Day 19, CIA + Compound A 3 mg/kg
[20] = Day 21, L paw, group 5 CIA + Compound A 1 mg/kg
[21] = Day 21, L paw, group 6 CIA + Compound A 3 mg/kg
[22] = Day 21, L paw, group 7 CIA + Compound A 10 mg/kg
[23] = Day 21, R paw, group 5 CIA + Compound A 1 mg/kg

SMILES: Cn1cc(-c2ccccc2)c(-c2cn(C)c(=O)c3[nH]c(-c4cnn(C(F)(F)F)c4)cc23)cc1=O [Compound A, 6-methyl-4-(1-methyl-2-oxo-5-phenyl-1,2-dihydropyridin-4-yl)-2-(1-(trifluoromethyl)-1H-pyrazol-4-yl)-1,6-dihydro-7H-pyrrolo[2,3-c]pyridin-7-one]
- Average detailed clinical score, score [1]: 1
- Average overall clinical score [1]: 1
- Overall Clinical Score (Day 15, CIA + Compound A 3 mg/kg, 3 mg/kg): 0 (2×) and 1
- Average detailed clinical score, left forelimb [2]: 0
- Average detailed clinical score, left hind limb [2]: 0.75
- Average detailed clinical score, right forelimb [2]: 0
- Average detailed clinical score, right hind limb [2]: 0.5
- Average detailed clinical score, score [2]: 1.25
- Average overall clinical score [2]: 1
- Animal paw volume (Day 15, L paw, Group 5 (CIA + Compound A 1 mg/kg), 1 mg/kg): 1.45 mL and 1.84 mL and 1.77 mL and 1.64 mL and 1.48 mL and 1.66 mL and 1.92 mL
- Animal paw volume (Day 15, L paw, Group 6 (CIA + Compound A 3 mg/kg), 3 mg/kg): 1.49 mL (2×) and 1.59 mL and 1.48 mL and 1.54 mL and 1.68 mL
- Animal paw volume (Day 15, R paw, Group 5 (CIA + Compound A 1 mg/kg), 1 mg/kg): 1.42 mL and 1.81 mL and 1.56 mL and 1.65 mL and 1.50 mL and 1.72 mL and 1.59 mL
- Animal paw volume (Day 15, R paw, Group 6 (CIA + Compound A 3 mg/kg), 3 mg/kg): 1.39 mL and 1.41 mL and 1.46 mL and 1.42 mL and 1.75 mL and 1.57 mL
- Average animal paw volume [3]: 1.98 mL
- Average animal paw volume percent change (%) [3]: 49.46%
- Average animal paw volume [4]: 1.64 mL
- Average animal paw volume percent change (%) [4]: 24.36%
- Average animal paw volume [5]: 1.61 mL
- Average animal paw volume percent change (%) [5]: 22.68%
- Animal paw volume percent change (%) (Day 18, L paw, group 5 CIA + Compound A 1 mg/kg, 1 mg/kg): 55.17% and 87.60% and 51.66% and 66.42% and 24.72% and 52.08% and 52.83%
- Animal paw volume percent change (%) (Day 18, L paw, group 6 CIA + Compound A 3 mg/kg, 3 mg/kg): 29.66% and 54.47% and 6.08% and 10.26% and 18.39% and 23.97%
- Average animal paw volume [6]: 1.91 mL
- Average animal paw volume percent change (%) [6]: 44.06%
- Average animal paw volume [7]: 1.78 mL
- Average animal paw volume percent change (%) [7]: 35.37%
- Average animal paw volume [8]: 1.76 mL
- Average animal paw volume percent change (%) [8]: 34.04%
- Animal paw volume percent change (%) (Day 18, R paw, group 5 CIA + Compound A 1 mg/kg, 1 mg/kg): 59.00% and 89.96% and 33.45% and 53.58% and 18.45% and 55.13% and 36.98%
- Animal paw volume percent change (%) (Day 18, R paw, group 6 CIA + Compound A 3 mg/kg, 3 mg/kg): 61.13% and 22.57% and 44.15% and 30.48% and 50.58% and 23.22%
- Average detailed clinical score, left forelimb [9]: 0.50
- Average detailed clinical score, left hind limb [9]: 3.88
- Average detailed clinical score, right forelimb [9]: 0.50
- Average detailed clinical score, right hind limb [9]: 3.88
- Average detailed clinical score, score [9]: 8.75
- Average overall clinical score [9]: 4
- Overall Clinical Score (Day 18, CIA + Compound A 1 mg/kg, 1 mg/kg): 0 and 5 (3×) and 7 and 6 and 2 and 4
- Average detailed clinical score, left forelimb [10]: 0.00
- Average detailed clinical score, left hind limb [10]: 2.50
- Average detailed clinical score, right forelimb [10]: 0.88
- Average detailed clinical score, right hind limb [10]: 2.25
- Average detailed clinical score, score [10]: 5.63
- Average overall clinical score [10]: 3
- Overall Clinical Score (Day 18, CIA + Compound A 3 mg/kg, 3 mg/kg): 4 and 3 and 2
- Average detailed clinical score, left forelimb [11]: 0.00
- Average detailed clinical score, left hind limb [11]: 1.13
- Average detailed clinical score, right forelimb [11]: 0.00
- Average overall clinical score [11]: 3
- Animal paw volume (Day 18, L paw, Group 5 (CIA + Compound A 1 mg/kg), 1 mg/kg): 2.03 mL (2×) and 2.42 mL and 2.06 mL and 2.21 mL and 1.67 mL and 2.02 mL
- Animal paw volume (Day 18, L paw, Group 6 (CIA + Compound A 3 mg/kg), 3 mg/kg): 1.71 mL and 1.99 mL and 1.40 mL and 1.51 mL and 1.55 mL and 1.66 mL
- Animal paw volume (Day 18, R paw, Group 5 (CIA + Compound A 1 mg/kg), 1 mg/kg): 2.08 mL and 2.46 mL and 1.84 mL and 2.04 mL (2×) and 1.61 mL and 1.82 mL
- Animal paw volume (Day 18, R paw, Group 6 (CIA + Compound A 3 mg/kg), 3 mg/kg): 2.14 mL and 1.58 mL and 1.91 mL and 1.76 mL and 1.95 mL and 1.65 mL
- Average animal paw volume [12]: 1.97 mL
- Average animal paw volume percent change (%) [12]: 49.19%
- Average animal paw volume [13]: 1.70 mL
- Average animal paw volume percent change (%) [13]: 29.54%
- Average animal paw volume [14]: 1.66 mL
- Average animal paw volume percent change (%) [14]: 26.62%
- Animal paw volume percent change (%) (Day 19, L paw, group 5 CIA + Compound A 1 mg/kg, 1 mg/kg): 55.17% and 87.60% and 49.82% and 69.06% and 22.47% and 52.08% and 53.58%
- Animal paw volume percent change (%) (Day 19, L paw, group 6 CIA + Compound A 3 mg/kg, 3 mg/kg): 43.35% and 54.47% and 22.81% and 10.99% and 29.12%
- Average animal paw volume [15]: 1.92 mL
- Average animal paw volume percent change (%) [15]: 44.50%
- Average animal paw volume [16]: 1.78 mL
- Average animal paw volume percent change (%) [16]: 35.81%
- Average animal paw volume [17]: 1.75 mL
- Average animal paw volume percent change (%) [17]: 33.14%
- Animal paw volume percent change (%) (Day 19, R paw, group 5 CIA + Compound A 1 mg/kg, 1 mg/kg): 68.20% and 87.26% and 33.45% and 54.34% and 17.71% and 54.75% and 35.85%
- Animal paw volume percent change (%) (Day 19, R paw, group 6 CIA + Compound A 3 mg/kg, 3 mg/kg): 61.89% and 25.68% and 43.02% and 29.74% and 52.90%
- Average detailed clinical score, left forelimb [18]: 1.13
- Average detailed clinical score, left hind limb [18]: 4.00
- Average detailed clinical score, right forelimb [18]: 1.00
- Average detailed clinical score, right hind limb [18]: 3.75
- Average detailed clinical score, score [18]: 9.88
- Average overall clinical score [18]: 5
- Overall Clinical Score (Day 19, CIA + Compound A 1 mg/kg, 1 mg/kg): 0 and 6 (5×) and 8 and 3
- Average detailed clinical score, left forelimb [19]: 0.00
- Average detailed clinical score, left hind limb [19]: 2.38
- Average detailed clinical score, right forelimb [19]: 1.13
- Average detailed clinical score, right hind limb [19]: 2.88
- Average detailed clinical score, score [19]: 6.38
- Average overall clinical score [19]: 4
- Overall Clinical Score (Day 19, CIA + Compound A 3 mg/kg, 3 mg/kg): 5 and 4 (2×)
- Average overall clinical score (Day 19, CIA + Compound A 10 mg/kg): 4
- Animal paw volume (Day 19, L paw, Group 5 (CIA + Compound A 1 mg/kg), 1 mg/kg): 2.03 mL (2×) and 2.42 mL and 2.24 mL and 1.64 mL and 2.02 mL and 2.04 mL
- Animal paw volume (Day 19, L paw, Group 6 (CIA + Compound A 3 mg/kg), 3 mg/kg): 1.89 mL and 1.99 mL and 1.62 mL and 1.52 mL and 1.69 mL
- Animal paw volume (Day 19, R paw, Group 5 (CIA + Compound A 1 mg/kg), 1 mg/kg): 2.20 mL and 2.43 mL and 1.84 mL and 2.05 mL and 1.60 mL and 2.04 mL and 1.80 mL
- Animal paw volume (Day 19, R paw, Group 6 (CIA + Compound A 3 mg/kg), 3 mg/kg): 2.15 mL and 1.62 mL and 1.90 mL and 1.75 mL and 1.98 mL
- Average animal paw volume [20]: 2.01 mL
- Average animal paw volume percent change (%) [20]: 52.06%
- Average animal paw volume [21]: 1.73 mL
- Average animal paw volume percent change (%) [21]: 31.54%
- Average animal paw volume [22]: 1.72 mL
- Average animal paw volume percent change (%) [22]: 31.20%
- Animal paw volume percent change (%) (Day 21, L paw, group 5 CIA + Compound A 1 mg/kg, 1 mg/kg): 56.70% and 89.53% and 53.14% and 70.94% and 22.47% and 56.60% and 61.89%
- Animal paw volume percent change (%) (Day 21, L paw, group 6 CIA + Compound A 3 mg/kg, 3 mg/kg): 46.01% and 70.04% and 24.33% and 10.99% and 37.55%
- Average animal paw volume [23]: 2.01 mL
- Average animal paw volume percent change (%) [23]: 51.46%
- Average animal paw volume (Day 21, R paw, group 6 CIA + Compound A 3 mg/kg): 1.82 mL
